These results are taken from ChEMBL document CHEMBL1201862, “PubChem BioAssay data set” (2004).

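Where inhibition never reached the appropriate level, the endpoint shown equals the highest concentration tested. Otherwise, values were interpolated linearly from a five-concentration, 48-hour dose response in 96-well plates. Here, GI50 denotes the concentration required for 50% inhibition of growth.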 Activity calls are given as the source filed them. Cut-off read from the data, not from the text of the source: active = GI50 up to about 1.1 µM and inactive = higher. Where only a bound is given, the exact number is not on record here.

Among the test systems are NCI-H23; HCT-15; SF-268; UO-31; M14; SN12C; K562; UACC-62; NCI-H460; CCRF-CEM; SK-MEL-28; RXF 393; HOP-62; SF-539; SK-OV-3; HCC 2998; OVCAR-8.
What all share (experiment): inhibition of tumour cell growth, NCI panel, 48 h

As to `O=C(/C=C/c1ccccc1)/C=C/c1ccccc1`, the GI50 in the test with NCI-H23 is 29.7 µM (inactive); in the test on HCT-15, 23.6 µM; in the test on SF-268, 28.4 µM (inactive); in the test with UO-31, 43.5 µM (inactive); in the test with M14, 19.8 µM (inactive); with SN12C, 20.4 µM (inactive). Moreover, the GI50 with K562 is 28.8 µM (inactive); in the test with UACC-62 it was 33 µM (inactive); in the test on NCI-H460, 27.5 µM (inactive); with CCRF-CEM, 36.9 µM (inactive); in the test with SK-MEL-28, 18.5 µM (inactive); with RXF 393 it was 34.4 µM (inactive). Moreover, the GI50 in the test with HOP-62 was > 100 µM (inactive); in the test on SF-539, 19.5 µM (inactive); with SK-OV-3, 43 µM (inactive); in the test on HCC 2998, 37.8 µM (inactive).

`CNS(=O)(=O)NNS(=O)(=O)c1ccccc1`: the GI50 in the test with NCI-H23 was > 100 µM (inactive); in the test on HCT-15, more than 100 µM; in the test with SF-268, > 100 µM (inactive); in the test with UO-31, > 100 µM (inactive); in the test on OVCAR-8, > 100 µM (inactive); in the test with M14, > 100 µM (inactive). For the same compound, the GI50 in the test on SN12C, in the test with K562, with UACC-62, with NCI-H460, in the test on CCRF-CEM and in the test with SK-MEL-28 was > 100 µM (inactive) each time. The GI50 with RXF 393, in the test on HOP-62, in the test with SF-539, in the test with SK-OV-3 and with HCC 2998 was > 100 µM (inactive) each time.

As for `C[Si](C)(C)OC1CC(=O)OC1n1cc(F)c(=O)[nH]c1=O` (configuration not stated), the GI50 in the test on NCI-H23 is > 27.8 µM (inactive); with HCT-15 it was 9.44 µM; with SF-268 it was 50.7 µM (inactive); with UO-31 it was 13 µM (inactive); with OVCAR-8 it was 31.8 µM (inactive); in the test with M14, 48.6 µM (inactive). The GI50 in the test with SN12C was 40 µM (inactive); in the test with K562, 26.4 µM (inactive); in the test with UACC-62, 10.8 µM (inactive); with NCI-H460, 3.72 µM (inactive); with CCRF-CEM it was 18.2 µM (inactive); in the test on SK-MEL-28, 15.8 µM (inactive). The GI50 with RXF 393 was > 43.6 µM (inactive); with HOP-62 it was 15.7 µM (inactive); with SF-539, 2.58 µM (inactive); in the test with SK-OV-3, > 95.7 µM (inactive); in the test with HCC 2998, 0.759 µM (active).

For `O=C(O)CNS(=O)(=O)c1ccc(NC(=O)c2cccc([N+](=O)[O-])c2)cc1`, the GI50 in the test on NCI-H23 was > 100 µM (inactive); in the test on HCT-15 it was more than 100 µM; in the test with SF-268, > 100 µM (inactive); in the test with UO-31 it was > 100 µM (inactive); with OVCAR-8, > 100 µM (inactive); with M14, > 100 µM (inactive). Moreover, the GI50 in the test on SN12C, in the test on K562, in the test with UACC-62, in the test on NCI-H460, with CCRF-CEM and in the test with SK-MEL-28 was > 100 µM (inactive) each time. Moreover, the GI50 in the test with RXF 393, in the test on SF-539, in the test with SK-OV-3 and with HCC 2998 was > 100 µM (inactive) each time.

With `C/C=C1\CN2CCc3c([nH]c4ccccc34)C2C=C1CCO` (configuration not stated), the GI50 was > 340 µM (inactive) in the test with NCI-H23; more than 340 µM in the test on HCT-15; > 340 µM (inactive) in the test with SF-268; > 340 µM (inactive) with OVCAR-8; > 340 µM (inactive) with SN12C; > 340 µM (inactive) in the test on K562. Moreover, the GI50 with UACC-62, in the test on NCI-H460, in the test with CCRF-CEM, with SK-MEL-28, in the test with RXF 393 and in the test with HOP-62 was > 340 µM (inactive) throughout. The GI50 in the test on SF-539, in the test on SK-OV-3 and with HCC 2998 was > 340 µM (inactive) throughout.

On to `O=C1C(=O)C(Br)(Br)C(Br)=C1Br`, for which the GI50 with NCI-H23 is > 10 µM (inactive); with HCT-15, 19.8 µM; in the test on SF-268, > 10 µM (inactive); in the test with UO-31 it was 17.8 µM (inactive); in the test on OVCAR-8 it was 17.3 µM (inactive); in the test on M14, 17.6 µM (inactive). Further, the GI50 is 23.7 µM (inactive) in the test with SN12C; 20 µM (inactive) with K562; 18.5 µM (inactive) in the test on UACC-62; 34 µM (inactive) with NCI-H460; 16.2 µM (inactive) with CCRF-CEM; 15.6 µM (inactive) with SK-MEL-28. Also, the GI50 in the test with RXF 393 is > 10 µM (inactive); in the test with HOP-62, > 100 µM (inactive); with SF-539 it was 19 µM (inactive); in the test on SK-OV-3 it was > 100 µM (inactive); with HCC 2998, 20.5 µM (inactive).

With `C=C(CCCCC)CN1CCCC1[C@@](C)(O)CC(=O)OCC` (some centres not stated), the GI50 with NCI-H23 was > 100 µM (inactive); in the test on HCT-15, more than 100 µM; with SF-268, > 100 µM (inactive); in the test on UO-31, > 100 µM (inactive); with OVCAR-8 it was > 100 µM (inactive); with M14, > 100 µM (inactive). Also, the GI50 in the test with SN12C, in the test with K562, with UACC-62, in the test on NCI-H460, in the test on CCRF-CEM and in the test on SK-MEL-28 was > 100 µM (inactive) throughout. In addition, the GI50 in the test with RXF 393, with HOP-62, in the test with SF-539, with SK-OV-3 and in the test on HCC 2998 was > 100 µM (inactive) each time.

For `COC1OC(COS(=O)(=O)c2ccc(C)cc2)C(O)C(OS(=O)(=O)c2ccc(C)cc2)C1OS(=O)(=O)c1ccc(C)cc1` (configuration not stated), the GI50 in the test on NCI-H23 is > 100 µM (inactive); with HCT-15, more than 100 µM; with SF-268, > 100 µM (inactive); in the test with UO-31 it was > 100 µM (inactive); in the test with OVCAR-8, > 100 µM (inactive); with M14, > 100 µM (inactive). Moreover, the GI50 in the test with SN12C, with K562, in the test with NCI-H460, in the test with CCRF-CEM, with SK-MEL-28 and in the test with RXF 393 was > 100 µM (inactive) each time. The GI50 in the test on HOP-62, in the test with SF-539, in the test with SK-OV-3 and with HCC 2998 was > 100 µM (inactive) throughout.

On to `CC1(C(=O)NCCN(CCNC(=O)C2(C)CC3(C)CC(C)(C2)C(=O)NC3=O)CCNC(=O)C2(C)CC3(C)CC(C)(C2)C(=O)NC3=O)CC2(C)CC(C)(C1)C(=O)NC2=O` (configuration not stated), for which the GI50 with NCI-H23 is > 100 µM (inactive); in the test on HCT-15, more than 100 µM; in the test with UO-31, > 100 µM (inactive); with OVCAR-8, > 100 µM (inactive); with M14 it was > 100 µM (inactive); in the test on SN12C, > 100 µM (inactive). Further, the GI50 in the test on K562, in the test with UACC-62, in the test with NCI-H460, in the test on CCRF-CEM, in the test on SK-MEL-28 and in the test with RXF 393 was > 100 µM (inactive) in each case. In addition, the GI50 in the test with HOP-62, with SF-539, with SK-OV-3 and in the test on HCC 2998 was > 100 µM (inactive) each time.

As for `CCO/C([O-])=C(\C(=O)c1ccccc1)[n+]1c(C)n(C)c2ccccc21`, the GI50 with NCI-H23 was > 100 µM (inactive); in the test with HCT-15, more than 100 µM; with SF-268, > 100 µM (inactive); in the test on UO-31 it was > 100 µM (inactive); in the test with OVCAR-8, > 100 µM (inactive); in the test with M14, > 100 µM (inactive). Further, the GI50 with K562, in the test with UACC-62, in the test on NCI-H460, with CCRF-CEM, in the test with SK-MEL-28 and in the test on RXF 393 was > 100 µM (inactive) throughout. The GI50 with HOP-62, in the test on SF-539, in the test on SK-OV-3 and in the test on HCC 2998 was > 100 µM (inactive) throughout.

With `COC(=O)/C(=N\NC(C)(C)C)C(C(=O)OC)C(=O)C(=O)Nc1cc(Cl)ccc1Cl` (configuration not stated), the GI50 with NCI-H23 is > 100 µM (inactive); in the test on HCT-15 it was more than 100 µM; in the test on SF-268, > 100 µM (inactive); with UO-31, > 100 µM (inactive); with OVCAR-8, > 100 µM (inactive); in the test on M14, > 100 µM (inactive). Moreover, the GI50 in the test with SN12C, in the test on K562, in the test with UACC-62, in the test with NCI-H460, with CCRF-CEM and in the test with SK-MEL-28 was > 100 µM (inactive) in each case. The GI50 in the test with RXF 393, in the test with HOP-62, in the test with SF-539, in the test on SK-OV-3 and with HCC 2998 was > 100 µM (inactive) throughout.

For the compound `C1C[N+]23CCC[N+]2(C1)CCC3` (configuration not stated), the GI50 was > 100 µM (inactive) in the test with NCI-H23; more than 100 µM in the test with HCT-15; > 100 µM (inactive) in the test with SF-268; 99.8 µM (inactive) with UO-31; > 100 µM (inactive) in the test with OVCAR-8; > 100 µM (inactive) in the test on M14. Further, the GI50 in the test with SN12C is > 100 µM (inactive); in the test with K562, > 100 µM (inactive); in the test on UACC-62, > 100 µM (inactive); in the test with NCI-H460, > 100 µM (inactive); with CCRF-CEM, 31.6 µM (inactive); with SK-MEL-28 it was > 100 µM (inactive). Moreover, the GI50 with RXF 393, in the test on HOP-62, in the test with SF-539, with SK-OV-3 and with HCC 2998 was > 100 µM (inactive) in each case.
